Values quoted from earlier work in patent publication EP0523846A2, “1,4-Benzodiazepines with 5-membered heterocyclic rings” (MERCK & CO. INC., priority 1991, dated 1993).

Settings: background statement citing Deschodt-Lanckman et al., Reg. Pept., 2, 15 (1981)

In the case of `CSCC[C@H](NC(=O)[C@H](Cc1ccc(OS(=O)(=O)O)cc1)NC(=O)[C@@H](N)CC(=O)O)C(=O)NCC(=O)N[C@@H](Cc1c[nH]c2ccccc12)C(=O)N[C@@H](CCSC)C(=O)N[C@@H](CC(=O)O)C(=O)N[C@@H](Cc1ccccc1)C(N)=O` [CCK-8s, H-Asp-Tyr(SO₃H)-Met-Gly-Trp-Met-Asp-Phe-NH₂], the half-life is listed as “less than 1 hour”.
